Data: publication PMC4957090, “A novel allele of L-galactono-1,4-lactone dehydrogenase is associated with enhanced drought tolerance through affecting stomatal aperture in common wheat” (Scientific Reports, 2016)

Assays:
[1] = biological target: T1, TaGLDH-D1 (Triticum aestivum, UniProt W5FUB4); test: cytochrome c reduction, absorbance at […] nm, crude mitochondrial fraction; format: biochemical; conditions: 4 μM L-GalL, 60 μM cytochrome c, 50 mM Tris-HCl pH 8.0, 0.15% Triton X-100; against PEBV:GUS control
T1 construct: gene LOC123120310; crude mitochondrial fraction

[2] = biological target: T2, TaGLDH-B1 (Triticum aestivum, UniProt W5FJN8); test: as above; format: biochemical; conditions: 4 μM L-GalL, 60 μM cytochrome c, 50 mM Tris-HCl pH 8.0, 0.15% Triton X-100; against PEBV:GUS control
T2 construct: gene LOC123111215; crude mitochondrial fraction

[3] = substrate: O=C1O[C@H]([C@@H](O)CO)[C@@H](O)[C@@H]1O; test: purified protein; format: biochemical, Triticum aestivum; conditions: 60 μM cytochrome c, 25 mM Tris-HCl pH 8.0, 25 mM NaCl

T1 sequence (W5FUB4 entry or part of it): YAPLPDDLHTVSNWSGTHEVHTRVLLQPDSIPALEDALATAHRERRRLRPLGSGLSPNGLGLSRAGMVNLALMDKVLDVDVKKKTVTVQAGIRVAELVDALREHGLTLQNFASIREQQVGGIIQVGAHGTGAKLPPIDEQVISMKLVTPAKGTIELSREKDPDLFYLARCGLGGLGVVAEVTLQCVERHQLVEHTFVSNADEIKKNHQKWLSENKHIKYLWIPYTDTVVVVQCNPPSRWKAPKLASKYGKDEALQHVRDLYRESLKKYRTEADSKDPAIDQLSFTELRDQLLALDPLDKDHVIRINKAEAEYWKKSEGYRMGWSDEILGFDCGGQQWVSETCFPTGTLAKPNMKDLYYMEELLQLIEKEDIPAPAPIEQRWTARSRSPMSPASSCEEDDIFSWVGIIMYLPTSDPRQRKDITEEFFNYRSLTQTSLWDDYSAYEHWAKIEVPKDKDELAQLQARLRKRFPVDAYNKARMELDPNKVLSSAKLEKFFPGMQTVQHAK
T2 sequence (W5FJN8 entry or part of it): as the sequence (W5FUB4 entry or part of it) above, with K133R, R158T, A241T, H256Y, L292I, C395S counted along it

Molecule: O=C1O[C@H]([C@@H](O)CO)[C@@H](O)[C@@H]1O [L-galactono-1,4-lactone]
- total GLDH activity [1]: GLDH activity level was significantly higher in the leaves infected by PEBV:A1, PEBV:B1 or PEBV:D1
- total GLDH activity [2]: GLDH activity level was significantly higher in the leaves infected by PEBV:A1, PEBV:B1 or PEBV:D1

B1: TaGLDH-A1a (wild-type allele of TaGLDH-A1) (Triticum aestivum; DEL501-501) (protein)
chain: YAPLPDDLHTVSNWSGTHEVHTRVLLQPDSIPALEDALATAHRERRRLRPLGSGLSPNGLGLSRAGMVNLALMDKVLDVDVKKKTVTVQAGIRVAELVDALSKHGLTLQNFASIREQQVGGIIQVGAHGTGARLPPIDEQVISMKLVTPAKGTIELSREKNPDLFYLARCGLGGLGVVAEVTLQCVERHQLVEHTFVSNADEIKKNHQNWLSENKHIKYLWIPYTDTVVVVQCNPPSRWKTPKLASKYVKDEALQHVRDLYRESLKKYRTEADSKDPAIDQLSFTELRDQLLALDPLDKDHVIRINKAEAEYWKKSEGYRMCWSDEILGFDCGGQQWVSETCFPTGTLAKPNMKDLYYMEELLQLIEEEDIPAPAPIEQRWTAHSRSPMSPASSSEEDDIFSWVGIIMYLPTSDPRQRKDITEFFNYRSLTQTSLWDDYSAYEHWAKIEVPKDKDELAQLQARLRKRFPVDAYNKARMELDPNKVLSSAKLEKFFPGMQTVQHAR
notes: without first 78 residues (putative mitochondrial targeting peptide), N-terminal His tag, pET-30a, E. coli
- Km ([3]; natural allele TaGLDH-A1b (Glu501 absent), cDNA from cv. Kashibaipi): 181.0 ± 67.1 µM

B2: TaGLDH-A1a (wild-type allele of TaGLDH-A1) (Triticum aestivum) (protein)
chain: YAPLPDDLHTVSNWSGTHEVHTRVLLQPDSIPALEDALATAHRERRRLRPLGSGLSPNGLGLSRAGMVNLALMDKVLDVDVKKKTVTVQAGIRVAELVDALSKHGLTLQNFASIREQQVGGIIQVGAHGTGARLPPIDEQVISMKLVTPAKGTIELSREKNPDLFYLARCGLGGLGVVAEVTLQCVERHQLVEHTFVSNADEIKKNHQNWLSENKHIKYLWIPYTDTVVVVQCNPPSRWKTPKLASKYVKDEALQHVRDLYRESLKKYRTEADSKDPAIDQLSFTELRDQLLALDPLDKDHVIRINKAEAEYWKKSEGYRMCWSDEILGFDCGGQQWVSETCFPTGTLAKPNMKDLYYMEELLQLIEEEDIPAPAPIEQRWTAHSRSPMSPASSSEEDDIFSWVGIIMYLPTSDPRQRKDITEEFFNYRSLTQTSLWDDYSAYEHWAKIEVPKDKDELAQLQARLRKRFPVDAYNKARMELDPNKVLSSAKLEKFFPGMQTVQHAR
notes: as for B1
- Km [3]: 61.0 ± 5.4 µM
